According to patent US9422335B2, “Modified toll-like receptor 2 (TLR2) ligands as inhibitors of neutrophil recruitment” (priority 2011, dated 2016):
“Also recorded” adds a separate entry of the source.

Columns and labels:
[1] = test system: bone marrow-derived macrophages; test: Internalization of FITC-FSL1/GML; assay type: cell-based, mice
Protocol: Bone marrow-derived macrophages were isolated from wild-type and TLR2−/− mice and cultured on glass coverslips. The cells were incubated on ice for 10 min in the presence of 10 μg/mL FITC-FSL1 or FITC-GML to allow ligands binding and then returned to 37° C. for 60 min. Cells were then fixed for 10 minutes in 4.5% paraformaldehyde and stained for the golgi marker Giantin (1:250, Abcam), and imaged using confocal microscopy.

[2] = severe sepsis; decreased from about 31%; cited from earlier work
[3] = test system: neutrophil emigration into the cremaster tissue; test: Intravital microscopy of cremaster muscle after intrascrotal injection; assay type: in vivo, mice; settings: for effect of antagonist pretreatment on LTA and GML inhibition of TNFα-induced neutrophil recruitment: 0.5 μg, 1.5 hr pre-treatment; for inhibitory properties toward LPS-induced neutrophil emigration: LPS 10 ng/g plus ligand 5 ng/g, 4.5 hours; for neutrophil recruitment induced by the ligand itself: wild-type mice, intrascrotal injection, 4.5 hr
Protocol: Intravital microscopy was performed on male mice, anaesthetized with an intraperitoneal injection of a 10 mg/kg xylazine (Bayer) and 200 mg/kg ketamine hydrochloride (Rogar/STB). The left jugular vein was cannulated to administer additional anaesthetic when necessary. An incision in the scrotal skin exposed the left cremaster muscle, which was then carefully dissected free of the associated fascia. The cremaster muscle was cut longitudinally with a cautery pen. The testicle and the epididymis were then separated from the underlying muscle and were moved into the abdominal cavity. The muscle was held flat on an optically clear viewing pedestal and was secured along the edges with 4-0 suture. The exposed tissue was superfused with 37° C.-warmed bicarbonate-buffered saline (pH 7.4). An upright microscope (Mikron; Carl Zeiss) was used to examine the cremasteric microcirculation and a video camera (XR/MEGA10-AM or XR/MEGA10 Panasonic) and DVD recorder were used to capture images. Three to five cremasteric venules (25 to 40 μm in diameter) were analysed during playback analysis. A leukocyte was considered to be adherent if it remained stationary for at least 30 seconds, and total leukocyte adhesion was quantified as the number of adherent cells within a 100-μm length of venule. Leukocyte emigration was defined as the number of cells in the extravascular space within the field of view adjacent to the observed venule.

[4] = test system: MIP2-induced neutrophil emigration; test: Intravital microscopy of exteriorized cremaster superfused with MIP2; assay type: in vivo, mice; settings: 0.5 μg, 1.5 hr pre-treatment; superfusion 60 min
Protocol: Intravital microscopy was performed on male mice, anaesthetized with an intraperitoneal injection of a 10 mg/kg xylazine (Bayer) and 200 mg/kg ketamine hydrochloride (Rogar/STB). The left jugular vein was cannulated to administer additional anaesthetic when necessary. An incision in the scrotal skin exposed the left cremaster muscle, which was then carefully dissected free of the associated fascia. The cremaster muscle was cut longitudinally with a cautery pen. The testicle and the epididymis were then separated from the underlying muscle and were moved into the abdominal cavity. The muscle was held flat on an optically clear viewing pedestal and was secured along the edges with 4-0 suture. The exposed tissue was superfused with 37° C.-warmed bicarbonate-buffered saline (pH 7.4). An upright microscope (Mikron; Carl Zeiss) was used to examine the cremasteric microcirculation and a video camera (XR/MEGA10-AM or XR/MEGA10 Panasonic) and DVD recorder were used to capture images. Three to five cremasteric venules (25 to 40 μm in diameter) were analysed during playback analysis. A leukocyte was considered to be adherent if it remained stationary for at least 30 seconds, and total leukocyte adhesion was quantified as the number of adherent cells within a 100-μm length of venule. […]

| Compound | effect of antagonist pretreatment on LTA and GML inhibition of TNFα-induced neutrophil recruitment [3] | effect of antagonist pretreatment on LTA and GML inhibition of MIP2-induced neutrophil recruitment [4] | inhibitory properties toward LPS-induced neutrophil emigration [3] | neutrophil recruitment induced by the ligand itself [3] | also measured |
| --- | --- | --- | --- | --- | --- |
| FSL1 | – | – | – | – | internalization / localization of FITC-labelled ligand ([1]; in the absence of TLR2): substantially inhibited with regard to internalization; localization of internalized FITC-labelled ligand ([1]; wild-type macrophages, 60 min, Giantin stain): much smaller vesicles, which did not co-localize with Giantin |
| drotrecogin alfa | – | – | – | – | mortality [2]: about 25% |
| O=C(Nc1ccccc1)c1cc([N+](=O)[O-])ccc1Cl [GW9662] | abrogated the inhibitory effect of both LTA and GML | abrogated the inhibitory effect of both LTA and GML | – | – | – |
| O=C(Nc1ccncc1)c1cc([N+](=O)[O-])ccc1Cl [T0070907] | abrogated the inhibitory effect of both LTA and GML | abrogated the inhibitory effect of both LTA and GML | – | – | – |
| Pam2CSK4 | – | – | did not exhibit any inhibitory properties | pro-inflammatory | – |
| Pam3CSK4 | – | – | did not exhibit any inhibitory properties | pro-inflammatory; also recorded: causes significant neutrophil recruitment into the cremaster tissue | – |
